Assay results published in patent publication US20020013362A1 (priority 2000, published 2002).

Columns and labels:
patients with melanoma [1] = conditions: cited from earlier work
metastatic melanoma = assay: Phase II M D Anderson trial of paclitaxel Q4Dx3 every 21 days, tumor responses; assay type: in vivo, human
Text: Cytokines and therapeutic agents which may be used include, for example, platinum compounds (e.g., spiroplatin, cisplatin, and carboplatin), thalidomide, methotrexate, adriamycin, mitomycin, ansamitocin, bleomycin, cytosine arabinoside, arabinosyl adenine, mercaptopolylysine, vincristine, busulfan, chlorambucil, melphalan (e.g., PAM, L-PAM or phenylalanine mustard), mercaptopurine, mitotane, carmustine, procarbazine hydrochloride dactinomycin (actinomycin D), daunorubicin hydrochloride, doxorubicin hydrochloride, taxol, mitomycin, plicamycin (mithramycin), aminoglutethimide, estramustine phosphate sodium, flutamide, leuprolide acetate, megestrol acetate, tamoxifen citrate, testolactone, trilostane, amsacrine (m-AMSA), asparaginase (L-asparaginase) Erwina asparaginase, etoposide (VP-16), interferon α-2a, interferon α-2b, teniposide (VM-26), vinblastine sulfate (VLB), vincristine sulfate, bleomycin, bleomycin sulfate, methotrexate, adriamycin, and arabinosyl; biological response modifiers such as muramyldipeptide, muramyltripeptide, microbial cell wall components, lymphokines (e.g., bacterial endotoxin such as lipopolysaccharide, macrophage activation factor), sub-units of bacteria (such as Mycobacteria, Corynebacteria), the synthetic dipeptide N-acetyl-muramyl-L-alanyl-D-isoglutamine; hormones such as growth hormone, melanocyte stimulating hormone, estradiol, beclomethasone dipropionate, betamethasone, betamethasone acetate and betamethasone sodium phosphate, vetamethasone disodium phosphate, vetamethasone sodium phosphate, cortisone acetate, dexamethasone, dexamethasone acetate, dexamethasone sodium phosphate, flunisolide, hydrocortisone, hydrocortisone acetate, hydrocortisone cypionate, hydrocortisone sodium phosphate, hydrocortisone sodium succinate, methylprednisolone, methylprednisolone acetate, methylprednisolone sodium succinate, paramethasone acetate, prednisolone, prednisolone acetate, prednisolone sodium phosphate, prednisolone tebutate, prednisone, triamcinolone, triamcinolone acetonide, triamcinolone diacetate, triamcinolone hexacetonide and fludrocortisone acetate; immunoadjuvants and cytokines may also be employed, including interleukins (e.g., IL-1, IL-2, IL-3, IL-6), leukemia inhibitory factor, interferons, such as INF-α, TGF-beta, erythropoietin, TNF, lymphotoxin, and thrombopoietin; thalidomide and/or other agents to inhibit the production and/or action of cytokine/growth factors such as M-α, IGF-1, EGF, TGF α, IL-1β, MGSA and bFGF in different cell types involved in tumor growth and/or angiogenesis of melanoma.

[2] = system: adult leukemia, solid tumors, and pediatric solid tumor patients; assay: Earlier published trials of the Q4D paclitaxel schedule; assay type: in vivo, human; conditions: one patient with a recurrent large metastatic melanoma
Text: An added benefit to this regimen includes a reduction in myelosupression. To this end, we devised the Q4 day (Q4D)×3 every 21-day treatment schedule which has the added value of increasing the dose intensity during each 21-day treatment period beyond that of the once every 21-day schedule (Ainsworth S. K., and Helson, L., U.S. Pat. No. 5,696,153 issued Dec. 9, 1997). […] During these trials an anecdotal twelve-month partial response in a patient with a recurrent large metastatic melanoma was observed. […]

patients with melanoma [3] = system: patients with melanoma
[4] = 17 patients, 90 mg/M^2 Q4 days x3

CC(=O)O[C@H]1C(=O)[C@@]2(C)[C@H]([C@H](OC(=O)c3ccccc3)[C@]3(O)C[C@H](OC(=O)[C@H](O)[C@@H](NC(=O)c4ccccc4)c4ccccc4)C(C)=C1C3(C)C)[C@]1(OC(C)=O)CO[C@@H]1C[C@@H]2O [paclitaxel]
partial responses in patients with melanoma (patients with melanoma [1]; 24-hour infusion, 250 mg/M^2 once every three weeks (Legha 1990)): 3/25 | paclitaxel dose a majority of the melanoma patients could tolerate (patients with melanoma [1]; Legha 1990): ≤ 200 mg/M^2 | objective responses (patients with melanoma [1]; phase II, same schedule (24-hour infusion 250 mg/M^2 q3 weeks), 28 patients (Einzig 1988)): five | maximum tolerated dose intensity under previous regimens (patients with melanoma [1]; three 175 mg/M^2 doses given every 21 days (63-day period)): 525 mg/M^2 | tumor volume decrease (metastatic melanoma; Patient #1, after another two courses (four in all)): 83% | decrease in liver metastases volume (metastatic melanoma; Patient #1, after two courses at 270 mg/M^2/course): 41% | decrease in lung metastases (metastatic melanoma; Patient #2, 270 mg/M^2/course): 43% | tumor control maintained, number of courses (metastatic melanoma; Patient #2, 270 mg/M^2/course): eight | decrease in tumor volume (metastatic melanoma; Patient #3, scapular primary, after 4 courses at 270 mg/M^2/course): 39% | decrease in tumor volume (metastatic melanoma; Patient #4, right calf primary, after 4 courses at 270 mg/M^2/course): 15% | decrease in tumor volume (metastatic melanoma; Patient #5, right heel mass, after 2 courses at 270 Mg/M^2/course): 12% | clinical response (metastatic melanoma; Patient #6, during 4 courses at 270 mg/M^2/course): stable disease | clinical response (metastatic melanoma; Patient #7, ciliochoroidal primary, no previous chemotherapy, after 3 courses at 270 mg/M^2/course): stable disease | clinical response (metastatic melanoma; Patient #8, tumor of dorsum of right foot, previously treated, during two courses at 270 mg/M^2/course): stable disease | clinical response (metastatic melanoma; Patient #9, non-choroidal melanoma, no prior chemotherapy, during 6 courses at 270 mg/M^2/course): stable disease | objective responses, tumor reduction (metastatic melanoma; interim analysis, first 21 patients, 90 mg/M^2/dose Q4D, advanced heavily pretreated melanoma): greater than 50% | reductions in hepatic tumor masses (metastatic melanoma; interim analysis, sustained over one month, additional two patients of first 21, 90 mg/M^2/dose Q4D): 25-40% | duration of anecdotal partial response [2]: twelve | associated toxicity versus 200 mg/M^2 Q 21-day schedule (patients with melanoma [3]; 270 mg/M^2 per 21 days, Q4D schedule): significantly less | Grade 3 abdominal pain (sufficient to interfere with function) (patients with melanoma [3]; [4]): 3 patients | Grade 3 anemia (between 6.5-7.9 grams/100 ml blood) (patients with melanoma [3]; [4]): 2 patients | Grade 3 diarrhea (over 7-9 stools/day) (patients with melanoma [3]; [4]): 2 patients | Grade 3 edema (>20% weight gain) (patients with melanoma [3]; [4]): 1 patient | Grade 3 fatigue (objective weakness with impairment of function) (patients with melanoma [3]; [4]): 4 patients | Grade 3 granulocytopenia (between 0.5-0.9x10^3/mm^3) (patients with melanoma [3]; [4]): 6 patients | Grade 3 increased alkaline phosphatase levels (between 5.1-20xN) (patients with melanoma [3]; [4]): 2 patients | Grade 3 toxicity, number of patients (patients with melanoma [3]; [4]): 11 patients | Grade 3 toxicity, number of times (patients with melanoma [3]; [4]): 21 times | Grade 4 BUN increase (greater than 10 times normal values) (patients with melanoma [3]; [4]): 1 patient | Grade 4 granulocytopenia (less than 0.5x10^3/mm^3) (patients with melanoma [3]; [4]): 4 patients | Grade 4 leukopenia (less than 1.0x10^3/mm^3) (patients with melanoma [3]; [4]): 2 patients | Grade 4 toxicity, number of patients (patients with melanoma [3]; [4]): 3 patients | major side effect (patients with melanoma [3]; Patient #2, eight courses at 270 mg/M^2/course): paresthesia
